{
  "source": "the supplement of paper PMC10307832",
  "experiment_in_all_cases": "relative viability (nuclei count vs DMSO), 5 days (fraction); higher = more cells survive",
  "key": {"Linsitinib + Foretinib": {"compound": "C[C@]1(O)C[C@@H](c2nc(-c3ccc4ccc(-c5ccccc5)nc4c3)c3c(N)nccn32)C1 [Linsitinib] + COc1cc2c(Oc3ccc(NC(=O)C4(C(=O)Nc5ccc(F)cc5)CC4)cc3F)ccnc2cc1OCCCN1CCOCC1 [Foretinib] (partner 0.25 µM)", "procedure,_shortened": "(§1)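 After 5 days of treatment, lung cancer cells in 1536-well plates were fixed and stained in a single step (final 0.05% Triton X-100, 1% formaldehyde, 1 ug/ml Hoechst) and their nuclei counted on 4× images. Treatment had been applied by pin tool the day after seeding as one drug alone or as a fixed anchor-drug dose with five library-drug doses (not always all listed) in √10 steps. Relative viability is the nuclei count of treated wells divided by that of vehicle wells, and values are medians of duplicate plates.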"}, "Ispinesib + Dasatinib": {"compound": "Cc1ccc(C(=O)N(CCCN)[C@@H](c2nc3cc(Cl)ccc3c(=O)n2Cc2ccccc2)C(C)C)cc1 [Ispinesib] + Cc1nc(Nc2ncc(C(=O)Nc3c(C)cccc3Cl)s2)cc(N2CCN(CCO)CC2)n1 [Dasatinib] (partner 0.075 µM)", "procedure,_shortened": "as §1"}, "Ispinesib + Phenformin": {"compound": "Cc1ccc(C(=O)N(CCCN)[C@@H](c2nc3cc(Cl)ccc3c(=O)n2Cc2ccccc2)C(C)C)cc1 [Ispinesib] + N=C(N)NC(=N)NCCc1ccccc1 [Phenformin] (partner 250 µM)", "procedure,_shortened": "as §1"}, "Linsitinib + Pictilisib": {"compound": "C[C@]1(O)C[C@@H](c2nc(-c3ccc4ccc(-c5ccccc5)nc4c3)c3c(N)nccn32)C1 [Linsitinib] + CS(=O)(=O)N1CCN(Cc2cc3nc(-c4cccc5[nH]ncc45)nc(N4CCOCC4)c3s2)CC1 [Pictilisib] (partner 1 µM)", "procedure,_shortened": "as §1"}},
  "data": [
    {"cell line": "NCI-H1651", "values": [
      {"measurement": "relative viability", "setting": "Linsitinib + Foretinib; first compound 0.01 µM", "result": 0.7},
      {"measurement": "relative viability", "setting": "Linsitinib + Foretinib; first compound 0.03162 µM", "result": 0.81},
      {"measurement": "relative viability", "setting": "Linsitinib + Foretinib; first compound 0.1 µM", "result": 0.753},
      {"measurement": "relative viability", "setting": "Linsitinib + Foretinib; first compound 0.3162 µM", "result": 0.683},
      {"measurement": "relative viability", "setting": "Linsitinib + Foretinib; first compound 1 µM", "result": 0.734},
      {"measurement": "relative viability", "setting": "Ispinesib + Dasatinib; first compound 0.001 µM", "result": 0.655},
      {"measurement": "relative viability", "setting": "Ispinesib + Dasatinib; first compound 0.003162 µM", "result": 0.497},
      {"measurement": "relative viability", "setting": "Ispinesib + Dasatinib; first compound 0.01 µM", "result": 0.479},
      {"measurement": "relative viability", "setting": "Ispinesib + Dasatinib; first compound 0.03162 µM", "result": 0.334},
      {"measurement": "relative viability", "setting": "Ispinesib + Dasatinib; first compound 0.1 µM", "result": 0.136},
      {"measurement": "relative viability", "setting": "Ispinesib + Phenformin; first compound 0.001 µM", "result": 0.365},
      {"measurement": "relative viability", "setting": "Ispinesib + Phenformin; first compound 0.003162 µM", "result": 0.413},
      {"measurement": "relative viability", "setting": "Ispinesib + Phenformin; first compound 0.01 µM", "result": 0.374},
      {"measurement": "relative viability", "setting": "Ispinesib + Phenformin; first compound 0.03162 µM", "result": 0.299},
      {"measurement": "relative viability", "setting": "Ispinesib + Phenformin; first compound 0.1 µM", "result": 0.121},
      {"measurement": "relative viability", "setting": "Linsitinib + Pictilisib; first compound 0.01 µM", "result": 0.505},
      {"measurement": "relative viability", "setting": "Linsitinib + Pictilisib; first compound 0.03162 µM", "result": 0.569},
      {"measurement": "relative viability", "setting": "Linsitinib + Pictilisib; first compound 0.1 µM", "result": 0.475},
      {"measurement": "relative viability", "setting": "Linsitinib + Pictilisib; first compound 0.3162 µM", "result": 0.377},
      {"measurement": "relative viability", "setting": "Linsitinib + Pictilisib; first compound 1 µM", "result": 0.508}
    ]},
    {"cell line": "HCC-78", "values": [
      {"measurement": "relative viability", "setting": "Linsitinib + Foretinib; first compound 0.01 µM", "result": 0.545},
      {"measurement": "relative viability", "setting": "Linsitinib + Foretinib; first compound 0.03162 µM", "result": 0.567},
      {"measurement": "relative viability", "setting": "Linsitinib + Foretinib; first compound 0.1 µM", "result": 0.471},
      {"measurement": "relative viability", "setting": "Linsitinib + Foretinib; first compound 0.3162 µM", "result": 0.44},
      {"measurement": "relative viability", "setting": "Linsitinib + Foretinib; first compound 1 µM", "result": 0.39},
      {"measurement": "relative viability", "setting": "Ispinesib + Dasatinib; first compound 0.001 µM", "result": 0.388},
      {"measurement": "relative viability", "setting": "Ispinesib + Dasatinib; first compound 0.003162 µM", "result": 0.542},
      {"measurement": "relative viability", "setting": "Ispinesib + Dasatinib; first compound 0.01 µM", "result": 0.464},
      {"measurement": "relative viability", "setting": "Ispinesib + Dasatinib; first compound 0.03162 µM", "result": 0.348},
      {"measurement": "relative viability", "setting": "Ispinesib + Dasatinib; first compound 0.1 µM", "result": 0.267},
      {"measurement": "relative viability", "setting": "Ispinesib + Phenformin; first compound 0.001 µM", "result": 0.738},
      {"measurement": "relative viability", "setting": "Ispinesib + Phenformin; first compound 0.003162 µM", "result": 0.896},
      {"measurement": "relative viability", "setting": "Ispinesib + Phenformin; first compound 0.01 µM", "result": 0.743},
      {"measurement": "relative viability", "setting": "Ispinesib + Phenformin; first compound 0.03162 µM", "result": 0.51},
      {"measurement": "relative viability", "setting": "Ispinesib + Phenformin; first compound 0.1 µM", "result": 0.543},
      {"measurement": "relative viability", "setting": "Linsitinib + Pictilisib; first compound 0.01 µM", "result": 0.205},
      {"measurement": "relative viability", "setting": "Linsitinib + Pictilisib; first compound 0.03162 µM", "result": 0.225},
      {"measurement": "relative viability", "setting": "Linsitinib + Pictilisib; first compound 0.1 µM", "result": 0.162},
      {"measurement": "relative viability", "setting": "Linsitinib + Pictilisib; first compound 0.3162 µM", "result": 0.203},
      {"measurement": "relative viability", "setting": "Linsitinib + Pictilisib; first compound 1 µM", "result": 0.204}
    ]},
    {"cell line": "NCI-H23", "values": [
      {"measurement": "relative viability", "setting": "Linsitinib + Foretinib; first compound 0.01 µM", "result": 1.04},
      {"measurement": "relative viability", "setting": "Linsitinib + Foretinib; first compound 0.03162 µM", "result": 1.06},
      {"measurement": "relative viability", "setting": "Linsitinib + Foretinib; first compound 0.1 µM", "result": 0.924},
      {"measurement": "relative viability", "setting": "Linsitinib + Foretinib; first compound 0.3162 µM", "result": 0.949},
      {"measurement": "relative viability", "setting": "Linsitinib + Foretinib; first compound 1 µM", "result": 1},
      {"measurement": "relative viability", "setting": "Ispinesib + Dasatinib; first compound 0.001 µM", "result": 0.857},
      {"measurement": "relative viability", "setting": "Ispinesib + Dasatinib; first compound 0.003162 µM", "result": 1.02},
      {"measurement": "relative viability", "setting": "Ispinesib + Dasatinib; first compound 0.01 µM", "result": 0.885},
      {"measurement": "relative viability", "setting": "Ispinesib + Dasatinib; first compound 0.03162 µM", "result": 0.653},
      {"measurement": "relative viability", "setting": "Ispinesib + Dasatinib; first compound 0.1 µM", "result": 0.188},
      {"measurement": "relative viability", "setting": "Ispinesib + Phenformin; first compound 0.001 µM", "result": 0.921},
      {"measurement": "relative viability", "setting": "Ispinesib + Phenformin; first compound 0.003162 µM", "result": 0.752},
      {"measurement": "relative viability", "setting": "Ispinesib + Phenformin; first compound 0.01 µM", "result": 0.795},
      {"measurement": "relative viability", "setting": "Ispinesib + Phenformin; first compound 0.03162 µM", "result": 0.61},
      {"measurement": "relative viability", "setting": "Ispinesib + Phenformin; first compound 0.1 µM", "result": 0.171},
      {"measurement": "relative viability", "setting": "Linsitinib + Pictilisib; first compound 0.01 µM", "result": 0.445},
      {"measurement": "relative viability", "setting": "Linsitinib + Pictilisib; first compound 0.03162 µM", "result": 0.412},
      {"measurement": "relative viability", "setting": "Linsitinib + Pictilisib; first compound 0.1 µM", "result": 0.521},
      {"measurement": "relative viability", "setting": "Linsitinib + Pictilisib; first compound 0.3162 µM", "result": 0.184},
      {"measurement": "relative viability", "setting": "Linsitinib + Pictilisib; first compound 1 µM", "result": 0.395}
    ]},
    {"cell line": "LOU-NH91", "values": [
      {"measurement": "relative viability", "setting": "Linsitinib + Foretinib; first compound 0.01 µM", "result": 0.953},
      {"measurement": "relative viability", "setting": "Linsitinib + Foretinib; first compound 0.03162 µM", "result": 0.939},
      {"measurement": "relative viability", "setting": "Linsitinib + Foretinib; first compound 0.1 µM", "result": 0.879},
      {"measurement": "relative viability", "setting": "Linsitinib + Foretinib; first compound 0.3162 µM", "result": 0.926},
      {"measurement": "relative viability", "setting": "Linsitinib + Foretinib; first compound 1 µM", "result": 0.842},
      {"measurement": "relative viability", "setting": "Ispinesib + Dasatinib; first compound 0.001 µM", "result": 0.591},
      {"measurement": "relative viability", "setting": "Ispinesib + Dasatinib; first compound 0.003162 µM", "result": 0.608},
      {"measurement": "relative viability", "setting": "Ispinesib + Dasatinib; first compound 0.01 µM", "result": 0.592},
      {"measurement": "relative viability", "setting": "Ispinesib + Dasatinib; first compound 0.03162 µM", "result": 0.519},
      {"measurement": "relative viability", "setting": "Ispinesib + Dasatinib; first compound 0.1 µM", "result": 0.206},
      {"measurement": "relative viability", "setting": "Ispinesib + Phenformin; first compound 0.001 µM", "result": 0.708},
      {"measurement": "relative viability", "setting": "Ispinesib + Phenformin; first compound 0.003162 µM", "result": 0.753},
      {"measurement": "relative viability", "setting": "Ispinesib + Phenformin; first compound 0.01 µM", "result": 0.774},
      {"measurement": "relative viability", "setting": "Ispinesib + Phenformin; first compound 0.03162 µM", "result": 0.563},
      {"measurement": "relative viability", "setting": "Ispinesib + Phenformin; first compound 0.1 µM", "result": 0.262},
      {"measurement": "relative viability", "setting": "Linsitinib + Pictilisib; first compound 0.01 µM", "result": 0.49},
      {"measurement": "relative viability", "setting": "Linsitinib + Pictilisib; first compound 0.03162 µM", "result": 0.515},
      {"measurement": "relative viability", "setting": "Linsitinib + Pictilisib; first compound 0.1 µM", "result": 0.503},
      {"measurement": "relative viability", "setting": "Linsitinib + Pictilisib; first compound 0.3162 µM", "result": 0.523},
      {"measurement": "relative viability", "setting": "Linsitinib + Pictilisib; first compound 1 µM", "result": 0.457}
    ]}
  ]
}
